The source of these data is patent publication US10703770B2, “Compositions and methods for the dissolution and depolymerization of lignin” (National Technology & Engineering Solutions of Sandia, LLC, priority 2016, dated 2020).

Where “and” joins values, the source holds several entries; their conditions need not be identical. Equal values may be shown once. Entries after “also recorded” stand apart in the source; their conditions may differ.

For data set [1] the following is noted: 25° C.; cited from earlier work.
Data set [2] can be described thus: Solubilization of alkali lignin in solvents. The following applies: 20 °C (room temperature), solvent 5 g.
Description: Alkali lignin (average molecular weight of lignin obtained from Sigma-Aldrich reported as 60.0 kDa) with low sulfonate content was used as a technical lignin substrate for the rapid solubilization experiments.
Confocal microscopy (10× magnification) was used to observe the morphologies of lignin before and after solubilization and precipitation, and the results are shown in FIGS. 8D-8F.
The test system of a further data set is CTec2+HTec2 (9:1, v/v). Kind of data set: Tolerance of commercial enzyme cocktails to IL in saccharification. It is filed as biochemical. Here is the method: FIG. 4C. Effects of some parameters on the sugar yield: IL concentration in hydrolysis. Normal operation conditions: pretreatment, 10 wt % SG loading, 90 wt % IL, 160° C., 0.5 h (3 h for eucalyptus); saccharification, 10 wt % IL, 20 mg protein/g SG, 50 ° C., 72 h.
As a result, the associated IL recycling and wastewater treatment costs create significant economic and process engineering challenges for the commercial scale-up of this technology. In the present process, commercial cocktails of CTec2+HTec2 (9:1, v/v) could tolerant about 10 wt % IL in saccharification process (FIG. 4C). […] [OAc] is tolerant to commercial cocktails not only in pH match, but also in its low toxic nature.
Generally, SSF requires compatible fermentation and saccharification conditions, with a similar pH, temperature and optimum substrate concentration. In a case of IL participating SSF, a compromise IL concentration for the two stages is an accessional requirement. […] [OAc] concentration of 10 wt %, however, increasing the [EOA] […] Thus, it would be interesting to see the performance of the wild yeast under different IL concentrations.
One-pot pretreatment, saccharification and fermentation: In a typical procedure, SG (100 mg) was mixed with ([EOA][OAc]) at a 10% biomass loading in a 15 mL capped glass pressure tube and pretreated in a convection oven at 160° C. for 0.5 h. […]

For data set [3] the following is noted: reported (refs 24, 25); cited from earlier work.
The test system of data set [4] is Saccharomyces cerevisiae strain BY4741. Briefly: Toxicity test of [EOA][OAc] on yeast growth. It is filed as cell-based. As to the method:
FIG. 5A. Toxicity test of [EOA][OAc]. Conditions: yeast strain: Saccharomyces cerevisiae strain BY4741, growth condition: in 24-well microplate with orbital-high intensity shaking/31° C./in IL solution (10 g/L glucose in each IL solutions), volume of the cell culture was 0.5 mL.
For toxicity screening, a wild type yeast strain BY4741 was technically used and it was immersed in various IL concentrations from 2.5 to 15 wt %.

As to `OCCO` [EG, ethylene glycol], in data set [1], the viscosity is reported as 0.0162 N s/m^2. Besides, the “Solubility (wt %) of alkali lignin” value in data set [2] was > 30 wt % and ~31 wt %.

For the compound `OCC(O)CO` [Glycerol], the viscosity in data set [1] is recorded as 0.95 N s/m^2.

`CC1COC(=O)O1` (stereo not drawn) [PC, propylene carbonate, reference compound]: the “Solubility (wt %) of alkali lignin” value in data set [2] was “Negligible solubility; also recorded: Trace”.

As for `CC(=O)O.NCCO` [[EOA][OAc], ethanolamine acetate], in the data set on CTec2+HTec2 (9:1, v/v) (CTec2+HTec2 (9:1, v/v), 50 °C, 72 h), the “IL concentration tolerated by commercial cocktails in saccharification” value is recorded as “about 10 wt %”. Besides, the “glucose yield at raised IL concentration in saccharification” value in the data set on CTec2+HTec2 (9:1, v/v) ([EOA][OAc] concentration over 10 wt %) is recorded as “decreased glucose yield”. The “thermal decomposition temperature, Td” value in data set [3] was “above 200 °C”. Further, the yeast growth result in data set [4] (5 wt % IL concentration) is reported as “better yeast growth”. For the same compound, in data set [4] (IL concentrations from 2.5 to 15 wt %, 31 °C, 10 g/L glucose), the yeast strain growth result was “better growth occurs in a lower IL titer below 10 wt %”.
